This is an account of results in US10793915B2, “Context dependent diagnostics test for guiding cancer treatment” (Eutropics Pharmaceuticals, Inc., priority 2015, dated 2020).

In assay [1] the test system is three suspension cancer cell lines. As to the kind of experiment: PraediCare Dx FACS BH3 profiling with BH3 mimetic compound applied to permeabilized cells. The assay is classed as cell-based. As to conditions: cell lines primed by NOXA. An excerpt: To further probe MCL-1 dependencies we explored the utility of certain BH3 mimetic compounds to provide an alternative to the NOXA readout to determine MCL-1 dependency in cancer cells. Our approach was to directly apply membrane permeable BH3 mimetic compounds that selectively target MCL1. Doing so would add the advantage of directly observing on target activity of the therapeutic agent.

Assay [2] relates to AML blasts from patient peripheral blood or bone marrow. As to the kind of experiment: BH3 profiling (mitochondrial profiling): JC-1 mitochondrial depolarization (% priming) of gated AML blasts exposed to BH3 peptides. The assay is classed as cell-based, human. As to conditions: for Median CR (n = 23) / Median CR (n = 13): complete remission patients; for Median NR (n = 29) / Median NR (n = 18): non-responders. As to the method:
Rows that are shaded grey are samples that failed the acceptance criteria of BH3 profiling during processing. […] Signal to noise is a measure of the DMSO JC-1 red mean fluorescence intensity (MFI) over the CCCP JC-1 read MFI. The cell counts and percent viability were determined by manual cell counting with trypan blue exclusion. Percent blasts are the percentages of CD45-dim, CD3/CD20 negative, and SSC-low of the permeabilized viable cells. All BH3 profiling was performed on those gated blast cells.
Briefly, frozen, extracted leukocyte samples were rapidly thawed, and cell viability was determined by Trypan Blue exclusion. Cells were washed in FACS buffer (1x PBS with 2% FBS) and immunophenotyped using fluorescently labeled CD45, CD3, and CD20 monoclonal antibodies. Cells were then resuspended in Newmeyer buffer (10 mM Trehalose, 10 mM HEPES, 80 mM KCl, 20 μM EGTA, 20 μM EDTA, 5 mM succinate, pH 7.4) for the perturbation step. The BH3 peptides were diluted in Newmeyer buffer to make working solutions resulting in final concentrations of: BIM (100 μM), BIM (0.1 μM), NOXA (100 μM), Puma (10 μM), HRK (100 μM), BAD (100 μM), and BID (1.0 μM). DMSO and CCCP were used as negative and positive peptide controls. Digitonin and oligomycin were added to individual FACS tubes, followed by the BH3 peptides. Cells were then added to the FACS tubes and incubated for 2 hours and 15 minutes at room temperature, in order for cell permeabilization, delivery of peptides or compounds, and mitochondrial depolarization to occur. After the incubation, JC-1 dye was prepared in Newmeyer buffer and added to directly to the treated cells. An additional tube of cells that was not treated with a peptide or compound was stained with propidium iodide (PI) to ensure that cells were effectively permeabilized by the digitonin. After 45 minutes of incubation with JC-1, cells were analyzed on a three laser BD FACSCanto II. AML Blasts were gated based on four parameters: 1) permeabilization (as determined by PI staining), 2) singlet discrimination based on SSC, 3) CD45 dim and CD3/CD20 negative, and 4) SSC low. The median JC-1 red fluorescence of the gated blast population was then used to calculate % depolarization as compared to DMSO (negative) and CCCP (positive) controls.
For each peptide, the percentage priming was calculated using the following formula that determines the priming based on the DMSO negative control as completely unprimed and the CCCP as a 100% primed reference:
For analysis, all patients not classified as CR were treated as non-responders [Minimal Residual Disease (MRD), Partial Remission (PR), and TF (treatment failure)]. Student's t-tests, Mann-Whitney rank-sum non-parametric tests, multi-variate logistic regression, and ROC curve analyses, between the BH3 peptides (and other tumor characteristics, such as cytogenetics, etc.) and response, were calculated using GraphPad Prism Version 5.04 and MedCalc Version 14.8.1.

Where [3] appears, read: Table 6, median percentage priming, all samples.
[4] abbreviates: Table 8, median percentage priming, bone marrow samples only.
Setting [5] is: median percentage priming, bone marrow samples only.

Regarding `CCN1CCN(C(c2ccc(C(F)(F)F)cc2)c2ccc3cccnc3c2O)CC1` (stereo not drawn) [EU5346], in assay [1], the “mitochondrial response to the compound (priming)” value was “responsive”.

As for “NOXA: NOXA BH3 peptide, 100 μM; in some aspects AELPPEFAAQLRKIGDKVYC (SEQ ID NO:1) (listed as Homo sapiens)”, in assay [2] (setting [3]), the “Median CR (n = 23)” value worked out at 17.2 and the “Median NR (n = 29)” value turned out to be 20.2. Also, in assay [2] (setting [4]), the “Median CR (n = 13)” value came to 44.5 and the “Median NR (n = 18)” value was found to be 5.2. For the same compound, the “median depolarization (priming)” value in assay [2] (all responses, all profiled patient samples) came out at 16.0%. In assay [2] (bone marrow samples only), the “NOXA priming in patients that did not respond” value was 5.2% and the “NOXA priming in patients that respond to treatment” value stood at 44.5%. Also, the “Median CR (n = 23)” value in assay [2] (median percentage priming of blasts, all samples (blood and marrow)) is listed as 17.2. The “Median NR (n = 29)” value in assay [2] (median percentage priming of blasts, all samples (blood and marrow), BIM 100/0.1 μM, NOXA 100 μM, Puma 10 μM, HRK 100 μM, BAD 100 μM, BID 1.0 μM) turned out to be 20.2. Further, in assay [2] (setting [5]), the “Median CR (n = 13)” value was 44.5 and the “Median NR (n = 18)” value worked out at 5.2.
